Measurements as given in patent publication US20250215029A1 (Recludix Pharma, Inc., priority 2022, published 2025).
Like-named read-outs stand apart in the source and are kept apart here.

How the values were obtained:
[1] = target: T1, Recombinant STAT6 protein (STAT6 (W123-T658)) (Homo sapiens, UniProt P42226); assay: STAT6 Fluorescence Polarization (FP) Assay; type: binding; conditions: 45-minute incubation
T1 construct: Recombinant STAT6 protein (STAT6 (W123-T658))
T1 sequence (P42226 123-658): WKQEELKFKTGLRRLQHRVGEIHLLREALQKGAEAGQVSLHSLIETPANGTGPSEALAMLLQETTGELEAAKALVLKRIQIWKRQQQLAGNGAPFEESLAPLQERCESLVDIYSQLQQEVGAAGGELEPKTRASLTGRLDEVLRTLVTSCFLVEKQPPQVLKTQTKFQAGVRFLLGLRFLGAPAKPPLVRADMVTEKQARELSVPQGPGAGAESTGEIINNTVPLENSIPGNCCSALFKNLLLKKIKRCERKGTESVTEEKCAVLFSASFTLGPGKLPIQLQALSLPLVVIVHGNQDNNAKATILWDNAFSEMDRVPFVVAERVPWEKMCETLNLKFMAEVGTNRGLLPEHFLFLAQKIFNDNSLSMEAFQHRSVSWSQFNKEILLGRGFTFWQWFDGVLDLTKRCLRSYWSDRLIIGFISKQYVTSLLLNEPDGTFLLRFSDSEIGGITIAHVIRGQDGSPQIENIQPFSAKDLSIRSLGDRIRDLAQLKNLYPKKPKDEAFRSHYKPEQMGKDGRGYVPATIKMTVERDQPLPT
How it was run: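 Recombinant STAT6 (W123-T658) at 250 nM mixed with 2 nM 5-FAM phosphotyrosine peptide probe in HEPES pH 7.4 buffer with DTT, 1% DMSO final, added to serially diluted compounds. FP (mP) read after 45 min at room temperature; IC50 by nonlinear regression vs log concentration.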

[2] = target: T2, Recombinant STAT3 protein (STAT3 (G127-I722)) (Homo sapiens, UniProt P40763); assay: STAT3 Fluorescence Polarization (FP) Assay; type: binding; conditions: probe 5-FAM-GpYLPQTV-NH2 2 nM, 45-minute incubation
T2 construct: Recombinant STAT3 protein (STAT3 (G127-I722))
T2 sequence (P40763 127-722): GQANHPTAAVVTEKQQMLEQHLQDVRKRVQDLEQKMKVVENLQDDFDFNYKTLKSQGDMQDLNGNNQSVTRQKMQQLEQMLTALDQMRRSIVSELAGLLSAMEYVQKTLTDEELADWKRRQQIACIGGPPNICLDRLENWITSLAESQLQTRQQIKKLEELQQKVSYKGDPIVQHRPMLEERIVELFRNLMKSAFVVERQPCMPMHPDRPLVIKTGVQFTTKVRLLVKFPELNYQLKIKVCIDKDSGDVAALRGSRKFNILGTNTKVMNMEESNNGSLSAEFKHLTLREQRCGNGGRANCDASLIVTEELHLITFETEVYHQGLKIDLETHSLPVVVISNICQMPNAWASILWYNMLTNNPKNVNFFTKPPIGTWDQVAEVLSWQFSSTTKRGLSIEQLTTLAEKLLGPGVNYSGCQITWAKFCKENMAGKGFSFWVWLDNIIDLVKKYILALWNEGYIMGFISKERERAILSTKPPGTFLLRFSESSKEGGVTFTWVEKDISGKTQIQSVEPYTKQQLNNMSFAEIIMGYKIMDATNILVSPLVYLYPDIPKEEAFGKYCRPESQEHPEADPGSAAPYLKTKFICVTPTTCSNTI
How it was run: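 Displacement of a 2 nM 5-FAM-labelled pY peptide (GpYLPQTV) from 25 nM recombinant STAT3 (G127-I722) was monitored by fluorescence polarization. Incubation lasted 45 min at room temperature in pH 7.4 HEPES buffer containing 1% DMSO.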

[3] = STAT6 (W123-T658) 250 nM, probe 5-FAM-ApYKPFQDLI-NH2 2 nM, read-out: STAT6 (FP assay IC50 class)
[4] = STAT3 (G127-I722) 25 nM, read-out: STAT3 (FP assay IC50 class)
[5] = STAT6 250 nM, probe 5-FAM-Ap[…]-NH2 2 nM, read-out: STAT6 (FP assay IC50)
[6] = STAT3 25 nM, read-out: STAT3 (FP assay IC50)
[7] = STAT6 (W123-T658) 250 nM, probe 5-FAM-Ap[…]-NH2 2 nM, read-out: STAT6 (FP assay IC50 class)

Row | IC50 [2, 4] | IC50 [1, 5] | IC50 [2, 6] | IC50 [1, 7] | Molecule | IC50 [1, 3]
1 | < 100 nM |  |  | 3000 to 30000 nM | CNc1c(F)cncc1C1CN(C(=O)[C@@H]2CC[C@@H]3CCC[C@H](NC(=O)c4cc5cc([C@H](F)P(=O)(O)O)ccc5s4)C(=O)N32)C1 (single isomer, unassigned) [Compound 703] | 
2 | 1000 to 10000 nM |  |  | 300 to 3000 nM | O=C(N[C@H]1CCCC[C@H]2CC[C@@H](C(=O)N3C(=O)N(c4cccnc4)C(=O)C34CC4)N2C1=O)c1ccc2ccc(CP(=O)(O)O)cc2c1 [Compound 893, ((7-(((3S,6S,10aS)-3-(5,7-dioxo-6-(pyridin-3-yl)-4,6-diazaspiro[2.4]heptane-4-carbonyl)-5-oxodecahydropyrrolo[1,2-a]azocin-6-yl)carbamoyl)naphthalen-2-yl)methyl) phosphonic acid] | 
3 | 100 to 1000 nM |  |  | 3000 to 30000 nM | O=C(N[C@H]1CCC[C@H]2CC[C@@H](C(=O)N3CC(c4cc(F)ccc4F)C3)N2C1=O)c1cc2cc(C(F)P(=O)(O)O)ccc2s1 (stereo partly drawn) [Compound 592, ((2-(((3S,6S,9aS)-3-(3-(2,5-difluorophenyl)azetidine-1-carbonyl)-5-oxooctahydro-1H-pyrrolo[1,2-a]azepin-6-yl)carbamoyl)benzo[b]thiophen-5-yl)fluoromethyl)phosphonic acid] | 
4 | < 100 nM |  |  | 3000 to 30000 nM | C[C@@H]1C[C@H]2CC[C@@H](C(=O)N3CC(c4cnccc4N(C)C)C3)N2C(=O)[C@@H](NC(=O)c2cc3cc([C@H](F)P(=O)(O)O)ccc3s2)C1 [Compound 735, ((R)-(2-(((3S,6S,8S,9aR)-3-(3-(4-(dimethylamino)pyridin-3-yl)azetidine-1-carbonyl)-8-methyl-5-oxooctahydro-1H-pyrrolo[1,2-a]azepin-6-yl)carbamoyl)benzo [b]thiophen-5-yl)fluoromethyl) phosphonic acid] | 
5 | < 100 nM |  |  | 300 to 3000 nM | O=C(N[C@H]1CCC[C@H]2CC[C@@H](C(=O)N3CC(c4cnccc4F)C3)N2C1=O)c1cc2cc([C@@H](F)P(=O)(O)O)ccc2s1 (single isomer, unassigned) [Compound 599] | 
6 | 1000 to 10000 nM |  |  | ≤ 300 nM | Cn1ccc(C2CN(C(=O)[C@@H]3CC[C@@H]4CCCC[C@H](NC(=O)c5cc6cc(C(F)P(=O)(O)O)ccc6s5)C(=O)N43)C3(CC3)C2)cc1=O (stereo partly drawn) [Compound 898, (fluoro(2-(((3S,6S,10aS)-3-(6-(1-methyl-2-oxo-1,2-dihydropyridin-4-yl)-4-azaspiro[2.4]heptane-4-carbonyl)-5-oxodecahydropyrrolo [1,2-a]azocin-6-yl)carbamoyl)benzo [b]thiophen-5-yl)methyl) phosphonic acid] | 
7 | 1000 to 10000 nM |  |  | 3000 to 30000 nM | O=C(N[C@H]1CC[C@H]2CC[C@@H](C(=O)N3CC(C(=O)N4CCOCC4)C3)N2C1=O)c1cc2cc(C(F)(F)P(=O)(O)O)ccc2s1 [Compound 731, (difluoro(2-(((3S,6S,8aS)-3-(3-(morpholine-4-carbonyl)azetidine-1-carbonyl)-5-oxooctahydro-indolizin-6-yl)carbamoyl)benzo [b]thiophen-5-yl)methyl) phosphonic acid] | 
8 | < 100 nM |  |  | 3000 to 30000 nM | O=C(N[C@H]1CCC[C@H]2CC[C@@H](C(=O)N3CC(c4cnccc4N4CC(C(F)(F)F)C4)C3)N2C1=O)c1cc2cc(CP(=O)(O)O)ccc2s1 [Compound 692, ((2-(((3S,6S,9aS)-5-oxo-3-(3-(4-(3-(trifluoromethyl)azetidin-1-yl)pyridin-3-yl)azetidine-1-carbonyl)octahydro-1H-pyrrolo[1,2-a]azepin-6-yl)carbamoyl)benzo [b]thiophen-5-yl)methyl) phosphonic acid] | 

More lines, now with the values behind:

Row | Molecule | IC50 [2, 4] | IC50 [1, 5] | IC50 [2, 6] | IC50 [1, 7] | IC50 [1, 3]
9 | Cn1ccc([C@@H]2CN(C(=O)[C@@H]3CC[C@@H]4CCCC[C@H](NC(=O)c5cc6cc(C(F)P(=O)(O)O)ccc6s5)C(=O)N43)C[C@H]2C#N)cc1=O (single isomer, unassigned) [Compound 228] | 1000 to 10000 nM |  |  |  | 300 to 3000 nM
10 | N#C[C@@H]1CN(C(=O)[C@@H]2C[C@@H](O)[C@@H]3CCCCC[C@H](NC(=O)c4ccc5ccc(C(F)(F)P(=O)(O)O)cc5c4)C(=O)N23)C[C@H]1c1cc[nH]c(=O)c1 (single isomer, unassigned) [Compound 106, ((7-(((1R,3S,6S, 11aS)-3-((3S,4R or 3R,4S)-3-cyano-4-(2-oxo-1,2-dihydropyridin-4-yl)pyrrolidine-1-carbonyl)-1-hydroxy-5-oxodecahydro-1H-pyrrolo[1,2-a]azonin-6-yl)carbamoyl)naphthalen-2-yl)difluoromethyl) phosphonic acid] |  | ≤ 300 nM | 1000 to 10000 nM |  | 
11 | CCC[C@@H]1CC[C@H](NC(=O)c2cc3cc(C(F)P(=O)(O)O)ccc3s2)C(=O)N2[C@H](CC[C@H]2C(=O)N2C[C@@H](C#N)[C@H](c3ccccc3)C2)C1 (single isomer, unassigned) [Compound 239] | 1000 to 10000 nM |  |  | ≤ 300 nM | 
12 | COC1(c2nccn2C)CN(C(=O)[C@@H]2CC[C@@H]3CCC4(CC4)C[C@H](NC(=O)c4ccc5ccc(C(F)(F)P(=O)(O)O)cc5c4)C(=O)N32)C1 [Compound 215, (difluoro(7-(((3′S,6′S,10a′S)-3′-(3-methoxy-3-(1-methyl-1H-imidazol-2-yl)azetidine-1-carbonyl)-5′-oxooctahydro-5′H-spiro[cyclopropane-1,8′-pyrrolo[1,2-a]azocin]-6′-yl)carbamoyl)naphthalen-2-yl)methyl)phosphonic acid] | 1000 to 10000 nM |  |  | 3000 to 30000 nM | 
13 | N#C[C@@H]1CN(C(=O)[C@@H]2CC[C@@H]3CCCC[C@H](NC(=O)c4cc5cc([C@@H](F)P(=O)(O)O)ccc5s4)C(=O)N32)C[C@H]1c1ccccc1 (single isomer, unassigned) [Compound 19, ((2-(((3S,6S,10aS)-3-((3S,4R or 3R,4S))-3-cyano-4-phenylpyrrolidine-1-carbonyl)-5-oxodecahydropyrrolo [1,2-a]azocin-6-yl)carbamoyl)benzo[b]thiophen-5-yl)fluoromethyl) phosphonic acid] |  | ≤ 300 nM | 1000 to 10000 nM |  | 
14 | ((S)-(2- (((3S,6S,9aS)-3- ((6S,7R)-7-cyano-6- (pyridin-3-yl)-4- azaspiro[2.4] heptane-4- carbonyl)-5- oxooctahydro-1H- pyrrolo[1,2- a]azepin-6- yl)carbamoyl)benzo [b]thiophen-5- yl)fluoromethyl) phosphonic acid [Compound 838] | 1000 to 10000 nM |  |  |  | ≤ 300 nM
15 | Cc1cc(C#N)cnc1C1CN(C(=O)[C@@H]2CC[C@@H]3CCCC[C@H](NC(=O)c4cc5cc(C(F)(F)P(=O)(O)O)ccc5s4)C(=O)N32)C1 [Compound 496, ((2-(((3S,6S,10aS)-3-(3-(5-cyano-3-methylpyridin-2-yl)azetidine-1-carbonyl)-5-oxodecahydropyrrolo[1,2-a]azocin-6-yl)carbamoyl)benzo[b]thiophen-5-yl)difluoromethyl)phosphonic acid] | < 100 nM |  |  | 300 to 3000 nM | 
16 | CN(C(=O)[C@@H]1CC[C@@H]2CCCC[C@H](NC(=O)c3cc4cc(C(F)(F)P(=O)(O)O)ccc4[nH]3)C(=O)N21)c1ccccc1 [Compound 1, (difluoro(2-(((3S,6S,10aS)-3-(methyl(phenyl)carbamoyl)-5-oxodecahydropyrrolo[1,2-a]azocin-6-yl)carbamoyl)-1H-indol-5-yl)methyl)phosphonic acid] |  | 300 to 3000 nM | > 10000 nM |  | 
17 | CC[C@H]1CC[C@H](NC(=O)c2cc3cc(C(F)P(=O)(O)O)ccc3s2)C(=O)N2[C@H](CC[C@H]2C(=O)N2C[C@@H](C#N)[C@H](c3ccccc3)C2)C1 (single isomer, unassigned) [Compound 237] | 1000 to 10000 nM |  |  | ≤ 300 nM | 
18 | CCc1ccncc1C1CN(C(=O)[C@@H]2CC[C@@H]3CCC[C@H](NC(=O)c4ccc5sc(CP(=O)(O)O)cc5c4)C(=O)N32)C1 [Compound 576, ((5-(((3S,6S,9aS)-3-(3-(4-ethylpyridin-3-yl)azetidine-1-carbonyl)-5-oxooctahydro-1H-pyrrolo[1,2-a]azepin-6-yl)carbamoyl)benzo[b]thiophen-2-yl)methyl)phosphonic acid] | 100 to 1000 nM |  |  | 3000 to 30000 nM | 
